Results on 16 compounds are retold here after patent US8026219B2, “Antimicrobial linear peptides” (Universitat de Girona, priority 2006, dated 2011).

Starred links: 1 amine or outer side, 2 acyl side, 3 side chain; linkers in the order of their positions; H or OH if unused. Non-standard residues stand in square brackets, D forms with d. Residues, ends and D or L forms follow the SMILES beside them. No end group written: not given here. *: point of attachment. X1 = O=C([C@H](Cc1c[nH]c2ccccc12)N(Cc1ccccc1)[*:1])[*:2]; Tos = Cc1ccc(S(=O)(=O)*)cc1; Bz = O=C(c1ccccc1)* A value given as a limit tells only on which side of the number the result lay.

Series [1] relates to erythrocytes from fresh human blood. Particulars: 5% erythrocytes, 1 h at 37° C., relative to 200 μM melittin; for % Haemolysis 50 μM: 50 μM peptide; for % Haemolysis 150 μM: 150 μM peptide; for % Haemolysis 250 μM: 250 μM peptide. Here is the method: A description of the methodology used to determine the haemolytic activity is found in Oren et al, Biochemistry, 2000, 39, 6103-6114, and in Raguse et al., J. Am. Chem. Soc., 2002, 124, 12774-12785.
The haemolytic activity of the peptides of the invention was evaluated by determining the release of haemoglobin which is produced on placing in contact a solution of the peptides with a suspension of erythrocytes 5% by volume, from fresh human blood.
The blood was collected aseptically using a Vactainer® K2E system (Belliver, Great Britain) with EDTA and it was stored at 4° C. for a period lower than 2 hours.
The blood was centrifuged at 6000 g for 5 minutes to separate the erythrocytes. There were washed three times with TRIS buffer (10 mM TRIS, 150 mM NaCl, pH 7.2) and they were resuspended in TRIS buffer until obtaining a suspension which contained 10% by volume of erythrocytes.
The peptides were solubilized in TRIS buffer until a final concentration of 100, 300 and 500 μM
The replicas were used for each peptide and concentration.
65 μl of 10% erythrocyte suspension was mixed with 65 μl of the peptide solution in each well of a 96-well plate (Micro-Amp®, Applied Biosystems, USA) (5% by volume of erythrocytes) and the mixture was incubated for 1 h at 37° C. under stirring. In this way, the erythrocyte suspensions were subjected to peptide concentrations of 50, 150 and 250 μM.
Next, the plates were centrifuged at 3500 g during 10 minutes and aliquots were transferred of 80 μl of supernatant to microplates with 100 wells (Bioscreen), which were diluted with 80 μl of milli-Q water.
The degree of haemolysis was determined from the absorbance at 540 nm with a Bioscreen plate reader.
The complete positive haemolysis control was determined in a TRIS buffer solution which contained 200 μM melittin (Sigma-Aldrich, Spain)
The percentage of haemolysis (H) was determined using the following equation: H=100×[Op−Ob)/(Om−Ob)]
Where OP as the optical density measured for a determined peptide concentration, Ob was the optical density of the buffer solution, and Om was the optical density for the positive control with melittin.

For series [2], the system named is Xanthomonas vesicatori 2133-2. Briefly: Minimum inhibitory concentration (MIC), microbial growth by optical density. Particulars: 48 h incubation at 25° C., TSB medium.
Series [3] deals with Erwinia amylovora PMV6076. The series is described as above. The format is cell-based. Particulars: 48 h incubation at 25° C., TSB medium. Here is the method:
(§1) Each experiment was performed twice.

The subject of series [4] is Pseudomonas syringae EPS94. Described as above. Particulars: 48 h incubation at 25° C., TSB medium. Type of series: cell-based. As to the method: as §1

In the case of `CC[C@H](C)[C@H](NC(=O)[C@H](CCCCN)NC(=O)[C@H](CCCCN)NC(=O)[C@H](Cc1ccccc1)NC(=O)[C@H](CC(C)C)NC(=O)[C@H](CCCCN)NC(=O)[C@H](Cc1c[nH]c2ccccc12)NCc1ccccc1)C(=O)N[C@@H](CC(C)C)C(=O)N[C@@H](CCCCN)C(=O)N[C@H](C(=O)N[C@@H](CC(C)C)C(N)=O)C(C)C` [BP011] (H-[X1]KLFKKILKVL-NH2), in series [1], the “% Haemolysis 50 μM” value was 81%, the “% Haemolysis 150 μM” value is 96% and the “% Haemolysis 250 μM” value was found to be 100%. The “range of concentrations including the MIC, X. vesicatoria” value (shortened to “range … X. vesicatoria”) in series [2] was in the range of 2.5 to 5 µM. For the same compound, the “range of concentrations including the MIC, E. amylovora” value (from here on “range … E. amylovora”) in series [3] fell in the range of 5 to 7.5 µM. In addition, in series [4], the “range of concentrations including the MIC, P. syringae” value (shortened to “range … P. syringae”) was 5 to 7.5 µM.

As to `CC[C@H](C)[C@H](NC(=O)[C@H](CCCCN)NC(=O)[C@H](CCCCN)NC(=O)[C@H](Cc1ccccc1)NC(=O)[C@H](CC(C)C)NC(=O)[C@H](CCCCN)NC(=O)[C@@H](N)CCCCN)C(=O)N[C@@H](CC(C)C)C(=O)N[C@@H](CCCCN)C(=O)N[C@@H](Cc1c[nH]c2ccccc12)C(=O)N[C@@H](CC(C)C)C(N)=O` [BP017], the “range … X. vesicatoria” value in series [2] lay within 5 to 7.5 µM. Besides, the “range … E. amylovora” value in series [3] was greater than 7.5 µM. Besides, the “range … P. syringae” value in series [4] lay within 5 to 7.5 µM.

`CC[C@H](C)[C@H](NC(=O)[C@H](CCCCN)NC(=O)[C@H](CCCCN)NC(=O)[C@H](Cc1ccccc1)NC(=O)[C@H](CC(C)C)NC(=O)[C@H](CCCCN)NC(=O)[C@H](CCCCN)NS(=O)(=O)c1ccc(C)cc1)C(=O)N[C@@H](CC(C)C)C(=O)N[C@@H](CCCCN)C(=O)N[C@H](C(=O)N[C@@H](CC(C)C)C(N)=O)C(C)C` [BP030]: in series [1], the “% Haemolysis 50 μM” value is reported as 25%, the “% Haemolysis 150 μM” value is reported as 70% and the “% Haemolysis 250 μM” value is 80%. In series [2], the “range … X. vesicatoria” value is 5 to 7.5 µM. Moreover, the “range … E. amylovora” value in series [3] was 5 to 7.5 µM. Also, the “range … P. syringae” value in series [4] is 5 to 7.5 µM.

In the case of `CC[C@H](C)[C@H](NC(=O)[C@H](CCCCN)NC(=O)[C@H](CCCCN)NC(=O)[C@H](Cc1ccccc1)NC(=O)[C@H](CC(C)C)NC(=O)[C@H](CCCCN)NC(=O)[C@H](CCCCN)NC(=O)c1ccccc1)C(=O)N[C@@H](CC(C)C)C(=O)N[C@@H](CCCCN)C(=O)N[C@H](C(=O)N[C@@H](CC(C)C)C(N)=O)C(C)C` [BP031], in series [1], the “% Haemolysis 50 μM” value is reported as 34%, the “% Haemolysis 150 μM” value is 71% and the “% Haemolysis 250 μM” value is 76%. Also, the “range … X. vesicatoria” value in series [2] is less than 2.5 µM. Moreover, in series [3], the “range … E. amylovora” value was 2.5 to 5 µM. The “range … P. syringae” value in series [4] fell in the range of 5 to 7.5 µM.

On to `CC[C@H](C)[C@H](NC(=O)[C@H](CCCCN)NC(=O)[C@H](CCCCN)NC(=O)[C@H](Cc1ccccc1)NC(=O)[C@H](CC(C)C)NC(=O)[C@H](CCCCN)NC(=O)[C@@H](N)CCCCN)C(=O)N[C@@H](CC(C)C)C(=O)N[C@@H](CCCCN)C(=O)N[C@@H](Cc1c[nH]c2ccccc12)C(=O)N[C@@H](CC(C)C)C(N)=O` [BP052], for which, in series [1], the “% Haemolysis 50 μM” value is 51%, the “% Haemolysis 150 μM” value stood at 84% and the “% Haemolysis 250 μM” value came to 79%. Besides, in series [2], the “range … X. vesicatoria” value is 2.5 to 5 µM. Also, the “range … E. amylovora” value in series [3] was 2.5 to 5 µM. In addition, in series [4], the “range … P. syringae” value turned out to be 5 µM.

Consider `CC[C@H](C)[C@H](NC(=O)[C@H](CCCCN)NC(=O)[C@H](CCCCN)NC(=O)[C@H](Cc1ccccc1)NC(=O)[C@H](CC(C)C)NC(=O)[C@H](CCCCN)NC(=O)[C@H](CCCCN)NC(C)=O)C(=O)N[C@@H](CC(C)C)C(=O)N[C@@H](CCCCN)C(=O)N[C@@H](Cc1c[nH]c2ccccc12)C(=O)N[C@@H](CC(C)C)C(N)=O` [BP053], for which, in series [1], the “% Haemolysis 50 μM” value is 60%, the “% Haemolysis 150 μM” value worked out at 82% and the “% Haemolysis 250 μM” value came out at 85%. The “range … X. vesicatoria” value in series [2] was in the range of 2.5 to 5 µM. In addition, the “range … E. amylovora” value in series [3] is greater than 7.5 µM. Further, in series [4], the “range … P. syringae” value lay within 5 to 7.5 µM.

On to `CC[C@H](C)[C@H](NC(=O)[C@H](CCCCN)NC(=O)[C@H](CCCCN)NC(=O)[C@H](Cc1ccccc1)NC(=O)[C@H](CC(C)C)NC(=O)[C@H](CCCCN)NC(=O)[C@H](CCCCN)NS(=O)(=O)c1ccc(C)cc1)C(=O)N[C@@H](CC(C)C)C(=O)N[C@@H](CCCCN)C(=O)N[C@@H](Cc1c[nH]c2ccccc12)C(=O)N[C@@H](CC(C)C)C(N)=O` [BP054] (Tos-KKLFKKILKWL-NH2), for which the “range … X. vesicatoria” value in series [2] was less than 2.5 µM. In addition, the “range … E. amylovora” value in series [3] is greater than 7.5 µM. Moreover, the “range … P. syringae” value in series [4] lay in the range of 5 to 7.5 µM.

`CC[C@H](C)[C@H](NC(=O)[C@H](CCCCN)NC(=O)[C@H](CCCCN)NC(=O)[C@H](Cc1ccccc1)NC(=O)[C@H](CC(C)C)NC(=O)[C@H](CCCCN)NC(=O)[C@H](CCCCN)NC(=O)c1ccccc1)C(=O)N[C@@H](CC(C)C)C(=O)N[C@@H](CCCCN)C(=O)N[C@@H](Cc1c[nH]c2ccccc12)C(=O)N[C@@H](CC(C)C)C(N)=O` [BP055] (Bz-KKLFKKILKWL-NH2): in series [2], the “range … X. vesicatoria” value is less than 2.5 µM. The “range … E. amylovora” value in series [3] was greater than 7.5 µM. The “range … P. syringae” value in series [4] is greater than 7.5 µM.

Turning to `CC[C@H](C)[C@H](NC(=O)[C@H](CCCCN)NC(=O)[C@H](CCCCN)NC(=O)[C@H](Cc1ccccc1)NC(=O)[C@H](CC(C)C)NC(=O)[C@H](CCCCN)NC(=O)[C@H](CC(C)C)NS(=O)(=O)c1ccc(C)cc1)C(=O)N[C@@H](CC(C)C)C(=O)N[C@@H](CCCCN)C(=O)N[C@@H](Cc1c[nH]c2ccccc12)C(=O)N[C@@H](CC(C)C)C(N)=O` [BP059] (Tos-LKLFKKILKWL-NH2), the “range … X. vesicatoria” value in series [2] stood at 2.5 µM. Moreover, in series [3], the “range … E. amylovora” value is greater than 7.5 µM. The “range … P. syringae” value in series [4] is greater than 7.5 µM.

In the case of `CC[C@H](C)[C@H](NC(=O)[C@H](CCCCN)NC(=O)[C@H](CCCCN)NC(=O)[C@H](Cc1ccccc1)NC(=O)[C@H](CC(C)C)NC(=O)[C@H](CCCCN)NC(=O)[C@H](CCCCN)NS(=O)(=O)c1ccc(C)cc1)C(=O)N[C@@H](CC(C)C)C(=O)N[C@@H](CCCCN)C(=O)N[C@@H](Cc1ccccc1)C(=O)N[C@@H](CC(C)C)C(N)=O` [BP078], in series [1], the “% Haemolysis 50 μM” value turned out to be 40%, the “% Haemolysis 150 μM” value was 85% and the “% Haemolysis 250 μM” value is listed as 95%. In series [2], the “range … X. vesicatoria” value was less than 2.5 µM. Moreover, the “range … E. amylovora” value in series [3] was in the range of 5 to 7.5 µM. In series [4], the “range … P. syringae” value is 5 to 7.5 µM.

Consider `CC[C@H](C)[C@H](NC(=O)[C@H](CCCCN)NC(=O)[C@H](CCCCN)NC(=O)[C@H](Cc1ccccc1)NC(=O)[C@H](CC(C)C)NC(=O)[C@H](CCCCN)NC(=O)[C@H](Cc1ccc(O)cc1)NC(C)=O)C(=O)N[C@@H](CC(C)C)C(=O)N[C@@H](CCCCN)C(=O)N[C@@H](Cc1ccc(O)cc1)C(=O)N[C@@H](CC(C)C)C(N)=O` [BP096], for which, in series [1], the “% Haemolysis 50 μM” value is 47%, the “% Haemolysis 150 μM” value turned out to be 86% and the “% Haemolysis 250 μM” value is on record as 85%.

`CC[C@H](C)[C@H](NC(=O)[C@H](CCCCN)NC(=O)[C@H](CCCCN)NC(=O)[C@H](Cc1ccccc1)NC(=O)[C@H](CC(C)C)NC(=O)[C@H](CCCCN)NC(=O)[C@H](CCCCN)NC(C)=O)C(=O)N[C@@H](CC(C)C)C(=O)N[C@@H](CCCCN)C(=O)N[C@@H](CCCCN)C(=O)N[C@@H](CC(C)C)C(N)=O` [BP124]: in series [1], the “% Haemolysis 50 μM” value is recorded as 1%, the “% Haemolysis 150 μM” value amounted to 5% and the “% Haemolysis 250 μM” value is given as 23%.

For the compound Ac-KKLFKKILKVL-NH2 [BP029], the “range … X. vesicatoria” value in series [2] turned out to be 7.5 µM. For the same compound, the “range … E. amylovora” value in series [3] was 5 to 7.5 µM. Besides, the “range … P. syringae” value in series [4] was 5 to 7.5 µM.

Consider Ac-YKLFKKILKKL-NH2 [BP120], for which, in series [2], the “range … X. vesicatoria” value lay within 5 to 7.5 µM. In series [3], the “range … E. amylovora” value is greater than 7.5 µM. In addition, the “range … P. syringae” value in series [4] was in the range of 5 to 7.5 µM.

In the case of LKLFKKILKKL-NH2 [BP128], in series [1], the “% Haemolysis 50 μM” value is recorded as 2%, the “% Haemolysis 150 μM” value is recorded as 31% and the “% Haemolysis 250 μM” value worked out at 66%.

Turning to YKLFKKILKKL-NH2 [BP119], in series [1], the “% Haemolysis 50 μM” value amounted to 4%, the “% Haemolysis 150 μM” value worked out at 19% and the “% Haemolysis 250 μM” value turned out to be 45%.
